Experimental data as given in US6660910B1, “Selection marker” (Syngenta Mogen B.V., priority 1997, dated 2003).

System: BMS cells
Assay: Maize killing curve
Type: cell-based
Details: for Observations (light microscope) / % dead cells (light microscope): Day 15; for % dead cells (light microscope): clumps of cells
Method: Stock solutions of cyanamide were prepared in water at 10 and 100 mg/ml and filter sterilised. Aliquots were stored at −20° C. Media were prepared by adding MS medium (4.4 g), sucrose (20 g), 2,4-D (2.0 mg) and agar (8 g) to 1 litre of water. […] BMS liquid was prepared as above minus agar. BMS cells were added to media containing cyanamide in three ways:
a. BMS cell suspension added to falcon tube and liquid removed. Then the BMS cells were arranged on the surface of the agar in clumps of approximately 5 mm in diameter, 5 clumps per plate, 3 plates per concentration, while on the base of each petri dish the outline of each clump was marked;
b. Approximately 0.5 ml pack cell volume plus 1.5 ml BMS liquid added to surface of agar and the cells were spread finely over surface of agar. Three plates per treatment were set up.
c. Approximately 0.5 ml pack cell volume plus 1.5 ml BMS liquid were added to filter paper overlying agar. Cells were spread evenly over surface of filter. One plate per treatment was set up.
The plates were sealed with micropore tape and incubated at 25° C. in the dark. […]
Samples were taken from the clumps of cells on all levels of cyanamide for observation under a light microscope. With increasing levels of cyanamide there were increasing numbers of dead cells where the cell contents had shrunk away from the cell wall, and an increase in the number of dark bodied starch grains. Cells were observed resuspended in water and with FDA stain under UV light.

N#CN [Cyanamide]
Observations (light microscope) (10 mg/l): Signs of stress. | % dead cells (light microscope) (10 mg/l): Approx 5% dead. | Growth of BMS cells (10 mg/l, after 15 days): reduction in growth of BMS cells on 10 mg/l was still very clear | Observations (light microscope) (30 mg/l): Striking differences from control cells. | % dead cells (light microscope) (30 mg/l): Approx 15-20% dead. | Growth of BMS cells (50 mg/l plus, after 15 days): showed no signs of growth | Observations (light microscope) (50 mg/l): Increasing number of dead cells and accumulation of starch | % dead cells (light microscope) (50 mg/l): Approx 50% dead. | Observations (light microscope) (100 mg/l): Majority of cell dead. | % dead cells (light microscope) (100 mg/l): Approx 90% dead. | Observations (light microscope) (150 mg/l): Majority of cells dead. | % dead cells (light microscope) (150 mg/l): Approx 95-98% dead. | Colour of BMS cells (all levels of cyanamide, after 8 days): no browning of cells was observed | Growth of BMS cells (cells spread over surface of media, 10 mg/l, after 8 days): significant reduction in growth | Cell density of BMS cells (cells spread over surface of media, 30 mg/l, after 8 days): slight increase in cell density | Growth of BMS cells (clumps and cells spread over agar, 30 mg/l plus, after 15 days): notable reduction in growth | Growth of BMS cell clumps (clumps on agar, 10 mg/l, after 8 days): had not outgrown their outline but the height of the clumps had increased | Cyanamide concentration with maximum effect on growth (clumps on agar, after 8 days): 50 mg/L | Growth of BMS cell clumps (repeated experiment, 10 mg/l): slight reduction in growth | Colour of BMS cell clumps (repeated experiment, above 50 mg/l): slight orange tinge | Growth of BMS cells (repeated experiment, cells spread over agar or on filters, 10 mg/l): slight growth (approximately doubling of the number of original cells) | Growth of BMS cells (repeated experiment, cells spread over agar or on filters, 20 mg/l and higher): limited of growth | Growth of BMS cell clumps (repeated experiment, from 20 mg/l on): showed no outgrowing from their original outline
